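In this assay, cells in 96-well plates receive the compound at five concentrations for 48 hours. Endpoints are linearly interpolated between the surrounding concentrations. The concentration for 50% growth inhibition is given as GI50. TGI is the concentration that stops growth completely.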
Key:
Experiment in all cases: inhibition of tumour cell growth, NCI panel, 48 h; in the data active = GI50 below about 0.43 µM; inactive = the rest
786-0 renal = tested on: 786-0 renal
A498 renal = tested on: A498 renal
A549 NSCLC = tested on: A549 NSCLC
ACHN renal = tested on: ACHN renal
BT-549 breast = tested on: BT-549 breast
CAKI-1 renal = tested on: CAKI-1 renal
CCRF-CEM leukemia = tested on: CCRF-CEM leukemia
COLO 205 colon = tested on: COLO 205 colon
DU-145 prostate = tested on: DU-145 prostate
EKVX NSCLC = tested on: EKVX NSCLC
HCC-2998 colon = tested on: HCC-2998 colon
HCT-116 colon = tested on: HCT-116 colon
HCT-15 colon = tested on: HCT-15 colon
HL-60(TB) leukemia = tested on: HL-60(TB) leukemia
HOP-62 NSCLC = tested on: HOP-62 NSCLC
HOP-92 NSCLC = tested on: HOP-92 NSCLC
HS 578T breast = tested on: HS 578T breast
HT29 colon = tested on: HT29 colon
IGROV1 ovarian = tested on: IGROV1 ovarian
K-562 leukemia = tested on: K-562 leukemia
KM12 colon = tested on: KM12 colon
LOX IMVI melanoma = tested on: LOX IMVI melanoma
M14 melanoma = tested on: M14 melanoma
MALME-3M melanoma = tested on: MALME-3M melanoma
MCF7 breast = tested on: MCF7 breast
MDA-MB-231 breast = tested on: MDA-MB-231 breast
MDA-MB-435 = tested on: MDA-MB-435
MOLT-4 leukemia = tested on: MOLT-4 leukemia
NCI-H226 lung = tested on: NCI-H226 lung
NCI-H23 lung = tested on: NCI-H23 lung
NCI-H460 lung = tested on: NCI-H460 lung
NCI-H522 lung = tested on: NCI-H522 lung
NCI/ADR-RES ovarian = tested on: NCI/ADR-RES ovarian
OVCAR-3 ovarian = tested on: OVCAR-3 ovarian
OVCAR-4 ovarian = tested on: OVCAR-4 ovarian
OVCAR-5 ovarian = tested on: OVCAR-5 ovarian
OVCAR-8 ovarian = tested on: OVCAR-8 ovarian
PC-3 prostate = tested on: PC-3 prostate
RPMI-8226 leukemia = tested on: RPMI-8226 leukemia
RXF 393 renal = tested on: RXF 393 renal
SF-268 CNS = tested on: SF-268 CNS
SF-295 CNS = tested on: SF-295 CNS
SF-539 CNS = tested on: SF-539 CNS
SK-MEL-2 melanoma = tested on: SK-MEL-2 melanoma
SK-MEL-28 melanoma = tested on: SK-MEL-28 melanoma
SK-MEL-5 melanoma = tested on: SK-MEL-5 melanoma
SK-OV-3 ovarian = tested on: SK-OV-3 ovarian
SN12C renal = tested on: SN12C renal
SNB-19 CNS = tested on: SNB-19 CNS
SNB-75 CNS = tested on: SNB-75 CNS
SR leukemia = tested on: SR leukemia
SW-620 colon = tested on: SW-620 colon
T-47D breast = tested on: T-47D breast
TK-10 renal = tested on: TK-10 renal
U251 CNS = tested on: U251 CNS
UACC-257 melanoma = tested on: UACC-257 melanoma
UACC-62 melanoma = tested on: UACC-62 melanoma
UO-31 renal = tested on: UO-31 renal

O=C1c2ccccc2C(=O)c2c(N=Nc3[nH]c(=S)[nH]c3O)cccc21
38600 nM: TGI (NCI-H23 lung)
56700 nM: TGI (U251 CNS)
> 34500 nM: TGI (NCI-H522 lung)
19800 nM: TGI (SF-295 CNS)
1130 nM: TGI (A498 renal)
> 100000 nM: TGI (786-0 renal) | TGI (A549 NSCLC) | TGI (ACHN renal) | TGI (CCRF-CEM leukemia) | TGI (COLO 205 colon) | TGI (EKVX NSCLC) | TGI (HCC-2998 colon) | TGI (HCT-116 colon) | TGI (HCT-15 colon) | TGI (HL-60(TB) leukemia) | TGI (HT29 colon) | TGI (IGROV1 ovarian) | TGI (K-562 leukemia) | TGI (KM12 colon) | TGI (LOX IMVI melanoma) | TGI (M14 melanoma) | TGI (MALME-3M melanoma) | TGI (MCF7 breast) | TGI (MOLT-4 leukemia) | TGI (NCI-H460 lung) | TGI (OVCAR-4 ovarian) | TGI (OVCAR-5 ovarian) | TGI (OVCAR-8 ovarian) | TGI (PC-3 prostate) | TGI (RPMI-8226 leukemia) | TGI (SK-MEL-2 melanoma) | TGI (SK-MEL-28 melanoma) | TGI (SK-MEL-5 melanoma) | TGI (SK-OV-3 ovarian) | TGI (SN12C renal) | TGI (SR leukemia) | TGI (SW-620 colon) | TGI (T-47D breast) | TGI (TK-10 renal) | TGI (UACC-257 melanoma) | TGI (UACC-62 melanoma)
> 74800 nM: TGI (SNB-19 CNS)
> 57200 nM: TGI (HOP-92 NSCLC)
3210 nM: TGI (RXF 393 renal)
98900 nM: TGI (SF-268 CNS)
> 61600 nM: TGI (HOP-62 NSCLC)
> 42400 nM: TGI (DU-145 prostate)
47900 nM: TGI (HS 578T breast)
2960 nM: TGI (SNB-75 CNS)
> 56900 nM: TGI (NCI-H226 lung)
> 75000 nM: TGI (CAKI-1 renal)
> 21400 nM: TGI (UO-31 renal)
active: GI50 (A498 renal) 104 nM | GI50 (CCRF-CEM leukemia) 384 nM | GI50 (MCF7 breast) 357 nM | GI50 (MDA-MB-435) 224 nM | GI50 (NCI-H522 lung) 425 nM | GI50 (OVCAR-3 ovarian) 368 nM | GI50 (SF-539 CNS) 424 nM | GI50 (SNB-75 CNS) 346 nM
18300 nM: TGI (MDA-MB-231 breast)
630 nM: TGI (MDA-MB-435)
> 28200 nM: TGI (NCI/ADR-RES ovarian)
43300 nM: TGI (BT-549 breast)
inactive: GI50 (786-0 renal) 1110 nM | GI50 (A549 NSCLC) 1750 nM | GI50 (ACHN renal) 1900 nM | GI50 (BT-549 breast) 1120 nM | GI50 (CAKI-1 renal) 548 nM | GI50 (COLO 205 colon) 2410 nM | GI50 (DU-145 prostate) 984 nM | GI50 (EKVX NSCLC) 4710 nM | GI50 (HCC-2998 colon) 3080 nM | GI50 (HCT-116 colon) 462 nM | GI50 (HCT-15 colon) 689 nM | GI50 (HL-60(TB) leukemia) 1130 nM | GI50 (HOP-62 NSCLC) 1840 nM | GI50 (HOP-92 NSCLC) 877 nM | GI50 (HS 578T breast) 462 nM | GI50 (HT29 colon) 2530 nM | GI50 (IGROV1 ovarian) 968 nM | GI50 (K-562 leukemia) 434 nM | GI50 (KM12 colon) 454 nM | GI50 (LOX IMVI melanoma) 734 nM | GI50 (M14 melanoma) 579 nM | GI50 (MALME-3M melanoma) 769 nM | GI50 (MDA-MB-231 breast) 1300 nM | GI50 (MOLT-4 leukemia) 1100 nM | GI50 (NCI-H226 lung) 4330 nM | GI50 (NCI-H23 lung) 1670 nM | GI50 (NCI-H460 lung) 849 nM | GI50 (NCI/ADR-RES ovarian) 2450 nM | GI50 (OVCAR-4 ovarian) 2120 nM | GI50 (OVCAR-5 ovarian) 4170 nM | GI50 (OVCAR-8 ovarian) 2470 nM | GI50 (PC-3 prostate) 816 nM | GI50 (RPMI-8226 leukemia) 1090 nM | GI50 (RXF 393 renal) 508 nM | GI50 (SF-268 CNS) 1560 nM | GI50 (SF-295 CNS) 983 nM | GI50 (SK-MEL-2 melanoma) 1700 nM | GI50 (SK-MEL-28 melanoma) 5200 nM | GI50 (SK-MEL-5 melanoma) 743 nM | GI50 (SK-OV-3 ovarian) 3860 nM | GI50 (SN12C renal) 1490 nM | GI50 (SNB-19 CNS) 997 nM | GI50 (SR leukemia) 472 nM | GI50 (SW-620 colon) 496 nM | GI50 (T-47D breast) 1640 nM | GI50 (TK-10 renal) 5230 nM | GI50 (U251 CNS) 676 nM | GI50 (UACC-257 melanoma) > 100000 nM | GI50 (UACC-62 melanoma) 604 nM | GI50 (UO-31 renal) 792 nM
2740 nM: TGI (SF-539 CNS)

— PubChem BioAssay (NCI)
